According to patent publication US4364953A, “2-0- and 5-0-Substituted 1.4;3.6-dianhydrohexitol mononitrates and pharmaceutical composition” (Firma Willmar Schwabe, priority 1980, dated 1982):
Read-outs that look alike come from different tables or passages of the source. One block for each compound: values may come before it.

How the values were obtained:
[1] = system: isolated guinea pig hearts; assay: Experiments on the Langendorff heart (isolated guinea pig hearts); conditions: Cavia porcellus, 25 μg./ml. test substance in 50 ml. tyrode solution, average of 3-6 hearts
[2] = system: narcotised guinea pigs; assay: Blood pressure experiments on the narcotised guinea pig (i.v.); conditions: for blood pressure afterwards: after administration; for blood pressure previously: before administration (baseline); for blood pressure-lowering effectiveness compared with ISMN and ISDN: in words, guinea pig i.v., Table III
[3] = system: isolated rat aorta preparations
[4] = in vivo; conditions: mouse, iv, Evaluated LD50 -range, mice, as hydrochloride
[5] = system: female NMRI-albino mice; assay: Acute toxicity, intravenous, female NMRI-albino mice; conditions: for Frequency of death with an intravenous dose of 100 mg/kg: 100 mg/kg i.v. as hydrochloride in physiological saline; for Frequency of death with an intravenous dose of 100 mg/kg / Frequency of death with an intravenous dose of 200 mg/kg: death within 24 hours, dead/treated; for Frequency of death with an intravenous dose of 200 mg/kg: 200 mg/kg i.v. as hydrochloride in physiological saline
[6] = system: mongrel cats; assay: Heart-circulation effectiveness in narcotised mongrel cats, intraduodenal administration; conditions: 5 mg/kg intraduodenal, cat
[7] = read-out: flowthrough, percentage change in comparison with the initial value
[8] = read-out: frequency, percentage change in comparison with the initial value
[9] = read-out: inotropism, percentage change in comparison with the initial value
[10] = read-out: noradrenaline spasm, […]
[11] = read-out: potassium chloride spasm, […]
[12] = 0 min (baseline), average ± standard error, 6 animals

IC50 [3, 10]: 0.14 µM
IC50 [3, 11]: 3.18 µM
Structure (SMILES): O=[N+]([O-])O[C@H]1CO[C@H]2[C@@H]1OC[C@@H]2Oc1ccc(Cl)cc1 [Example 1c, 5-O-(4-Chlorophenyl)-1.4;3.6-dianhydro-L-iditol 2-nitrate]
activation at 25 µg/mL [1, 7]: 19.8%
activation at 25 µg/mL [1, 8]: 2.89%
activation at 25 µg/mL [1, 9]: 12.2%
blood pressure Δ ([2]; 0.25 mg/kg i.v.): -1.60 mm.Hg
blood pressure afterwards ([2]; 0.25 mg/kg i.v.): 59.70 ± 2.40 mm.Hg
blood pressure previously ([2]; 0.25 mg/kg i.v.): 61.30 ± 2.60 mm.Hg
blood pressure Δ ([2]; 1.00 mg/kg i.v.): -15.00 mm.Hg
blood pressure afterwards ([2]; 1.00 mg/kg i.v.): 46.90 ± 1.20 mm.Hg
blood pressure previously ([2]; 1.00 mg/kg i.v.): 61.90 ± 1.90 mm.Hg
blood pressure Δ ([2]; 2.50 mg/kg i.v.): -23.00 mm.Hg
blood pressure afterwards ([2]; 2.50 mg/kg i.v.): 37.60 ± 1.00 mm.Hg
blood pressure previously ([2]; 2.50 mg/kg i.v.): 60.60 ± 1.80 mm.Hg

Structure (SMILES): O=C(O[C@H]1CO[C@H]2[C@@H]1OC[C@@H]2O[N+](=O)[O-])c1cccnc1 [Example 2b, 1.4;3.6-Dianhydro-L-iditol 2-nitrate 5-nicotinate]
activation at 25 µg/mL [1, 7]: 35.4%
activation at 25 µg/mL [1, 8]: 0%
activation at 25 µg/mL [1, 9]: 3.36%
LD50 at 24 h [4]: ≥ 200 mg/kg
Frequency of death with an intravenous dose of 100 mg/kg [5]: 0/6
Frequency of death with an intravenous dose of 200 mg/kg [5]: 2/6
blood pressure Δ ([2]; 0.25 mg/kg i.v.): -11.40 mm.Hg
blood pressure afterwards ([2]; 0.25 mg/kg i.v.): 47.30 ± 2.60 mm.Hg
blood pressure previously ([2]; 0.25 mg/kg i.v.): 58.70 ± 4.30 mm.Hg
blood pressure Δ ([2]; 1.00 mg/kg i.v.): -15.60 mm.Hg
blood pressure afterwards ([2]; 1.00 mg/kg i.v.): 42.70 ± 1.80 mm.Hg
blood pressure previously ([2]; 1.00 mg/kg i.v.): 58.30 ± 2.00 mm.Hg
blood pressure Δ ([2]; 2.50 mg/kg i.v.): -20.70 mm.Hg
blood pressure afterwards ([2]; 2.50 mg/kg i.v.): 33.00 ± 1.00 mm.Hg
blood pressure previously ([2]; 2.50 mg/kg i.v.): 53.70 ± 3.30 mm.Hg
blood pressure-lowering effectiveness compared with ISMN and ISDN [2]: actions similar to those of ISDN
IC50 [3, 10]: 0.28 µM
IC50 [3, 11]: 3.1 µM

IC50 [3, 10]: 2.2 µM
IC50 [3, 11]: 2.8 µM
Structure (SMILES): CS(=O)(=O)O[C@@H]1CO[C@H]2[C@@H]1OC[C@@H]2O[N+](=O)[O-] [Example 4, 1.4;3.6-Dianhydro-D-glucitol 2-nitrate 5-methanesulphonate]
activation at 25 µg/mL [1, 7]: 44.3%
activation at 25 µg/mL [1, 8]: 0%
activation at 25 µg/mL [1, 9]: 0%

Structure (SMILES): O=C(O[C@@H]1CO[C@H]2[C@@H]1OC[C@@H]2O[N+](=O)[O-])c1cccnc1 [Example 5b, 1.4;3.6-Dianhydro-D-glucitol 2-nitrate 5-nicotinate]
activation at 25 µg/mL [1, 7]: 23.6%
activation at 25 µg/mL [1, 8]: -9.13%
activation at 25 µg/mL [1, 9]: 15.8%
LD50 at 24 h [4]: > 100 mg/kg
Frequency of death with an intravenous dose of 100 mg/kg [5]: 0/6
blood pressure Δ ([2]; 0.25 mg/kg i.v.): -7.70 mm.Hg
blood pressure afterwards ([2]; 0.25 mg/kg i.v.): 55.00 ± 1.00 mm.Hg
blood pressure previously ([2]; 0.25 mg/kg i.v.): 62.70 ± 3.00 mm.Hg
blood pressure Δ ([2]; 1.00 mg/kg i.v.): -18.00 mm.Hg
blood pressure afterwards ([2]; 1.00 mg/kg i.v.): 44.30 ± 0.90 mm.Hg
blood pressure previously ([2]; 1.00 mg/kg i.v.): 62.30 ± 4.10 mm.Hg
blood pressure Δ ([2]; 2.50 mg/kg i.v.): -28.00 mm.Hg
blood pressure afterwards ([2]; 2.50 mg/kg i.v.): 33.30 ± 0.70 mm.Hg
blood pressure previously ([2]; 2.50 mg/kg i.v.): 61.30 ± 4.90 mm.Hg
blood pressure-lowering effectiveness compared with ISMN and ISDN [2]: actions similar to those of ISDN
blood pressure [6, 12]: 123.5 ± 7.3 mm.Hg
dp/dt (inotropism) [6, 12]: 10625 ± 2083 mm.sec.
heart frequency [6, 12]: 211.5 ± 19.3 min⁻¹
blood pressure ([6]; 10 min after admin.): 98.3 ± 6.2 mm.Hg
dp/dt (inotropism) ([6]; 10 min after admin.): 8050 ± 1204 mm.sec.
heart frequency ([6]; 10 min after admin.): 209.5 ± 19.2 min⁻¹
blood pressure Δ ([6]; 10 min versus 0 min): -25.2 mm.Hg
dp/dt Δ ([6]; 10 min versus 0 min): -2575 mm.sec.
blood pressure ([6]; 30 min after admin.): 94.8 ± 7.2 mm.Hg
dp/dt (inotropism) ([6]; 30 min after admin.): 7975 ± 1216 mm.sec.
heart frequency ([6]; 30 min after admin.): 212.5 ± 21.6 min⁻¹
blood pressure Δ ([6]; 30 min versus 0 min): -28.7 mm.Hg
dp/dt Δ ([6]; 30 min versus 0 min): -2650 mm.sec.
blood pressure ([6]; 60 min after admin.): 93.8 ± 7.8 mm.Hg
dp/dt (inotropism) ([6]; 60 min after admin.): 8275 ± 309 mm.sec.
heart frequency ([6]; 60 min after admin.): 225.0 ± 16.2 min⁻¹
blood pressure Δ ([6]; 60 min versus 0 min): -29.7 mm.Hg
dp/dt Δ ([6]; 60 min versus 0 min): -2350 mm.sec.
blood pressure ([6]; 120 min after admin.): 101.3 ± 11.2 mm.Hg
dp/dt (inotropism) ([6]; 120 min after admin.): 7500 ± 1022 mm.sec.
heart frequency ([6]; 120 min after admin.): 228.0 ± 15.6 min⁻¹
blood pressure Δ ([6]; 120 min versus 0 min): -22.2 mm.Hg
dp/dt Δ ([6]; 120 min versus 0 min): -3125 mm.sec.
IC50 [3, 10]: 6.2 µM
IC50 [3, 11]: 22.5 µM

Structure (SMILES): O=C(O[C@H]1CO[C@H]2[C@@H]1OC[C@H]2O[N+](=O)[O-])c1cccnc1 [Example 7b, 1.4;3.6-Dianhydro-D-glucitol 2-nicotinate 5-nitrate]
LD50 at 24 h [4]: > 200 mg/kg
Frequency of death with an intravenous dose of 200 mg/kg [5]: 0/6
IC50 [3, 10]: 20 µM
IC50 [3, 11]: 44 µM

Structure (SMILES): O=C(O[C@@H]1CO[C@H]2[C@@H]1OC[C@H]2O[N+](=O)[O-])c1cccnc1 [Example 8, 1.4;3.6-Dianhydro-D-mannitol 2-nitrate 5-nicotinate]
LD50 at 24 h [4]: < 200 mg/kg
Frequency of death with an intravenous dose of 100 mg/kg [5]: 0/6
Frequency of death with an intravenous dose of 200 mg/kg [5]: 3/3
Evaluated LD50 -range ([5]; i.v., mice, as hydrochloride, 24 hours, 1440 min): > 100 mg/kg
